{
  "source": "paper PMC5218480",
  "about": "(PLoS ONE, 2017)",
  "test_system": "MV-4-11 cells",
  "assay": "Gene expression microarray analysis (Affymetrix PrimeView) and GSEA",
  "type": "cell-based, human",
  "parameters": "RFU PODN (11730768_x_at) / Fold change /veh PODN (11730768_x_at) / RFU LINC00158 (11744669_a_at) / Fold change /veh LINC00158 (11744669_a_at) / RFU DUSP10 (11751237_a_at) / Fold change /veh DUSP10 (11751237_a_at) / RFU ID3 (11757404_x_at) / Fold change /veh ID3 (11757404_x_at) / RFU PLEKHG5 (11737974_s_at) / Fold change /veh PLEKHG5 (11737974_s_at) / RFU LRRC4B (11730491_at) / Fold change /veh LRRC4B (11730491_at) / RFU GIMAP4 (11747438_a_at) / Fold change /veh GIMAP4 (11747438_a_at) / RFU KRT8 (11758183_x_at) / Fold change /veh KRT8 (11758183_x_at) / RFU CNN1 (11734310_a_at) / Fold change /veh CNN1 (11734310_a_at) / RFU VPS37D (11726825_at) / Fold change /veh VPS37D (11726825_at) / RFU C10orf10 (11716522_x_at) / Fold change /veh C10orf10 (11716522_x_at) / RFU KIR2DL2 /// KIR2DL4 /// KIR2DL5A /// KIR2DL5B /// KIR2DS1 /// KIR2DS2 /// KIR2DS3 /// KIR2DS4 /// KIR3DL3 /// KIR3DL3 /// KIR3DS1 (11738374_at) / Fold change /veh KIR2DL2 /// KIR2DL4 /// KIR2DL5A /// KIR2DL5B /// KIR2DS1 /// KIR2DS2 /// KIR2DS3 /// KIR2DS4 /// KIR3DL3 /// KIR3DL3 /// KIR3DS1 (11738374_at) / RFU C1QL1 (11718748_at) / Fold change /veh C1QL1 (11718748_at) / RFU TMPRSS4 (11747572_a_at) / Fold change /veh TMPRSS4 (11747572_a_at) / RFU HAMP (11756126_x_at) / Fold change /veh HAMP (11756126_x_at) / RFU RNFT2 (11725882_a_at) / Fold change /veh RNFT2 (11725882_a_at) / RFU NR4A2 (11747474_a_at) / Fold change /veh NR4A2 (11747474_a_at) / RFU ABCC12 (11746883_a_at) / Fold change /veh ABCC12 (11746883_a_at) / RFU TMEM136 (11760407_x_at) / Fold change /veh TMEM136 (11760407_x_at) / RFU CLDN22 /// WWC2 (11732394_at) / Fold change /veh CLDN22 /// WWC2 (11732394_at) / RFU HLA-DPB1 (11760878_x_at) / Fold change /veh HLA-DPB1 (11760878_x_at) / RFU SPINT1 (11716480_a_at) / Fold change /veh SPINT1 (11716480_a_at) / RFU GAP43 (11754022_s_at) / Fold change /veh GAP43 (11754022_s_at) / RFU A4GNT (11735810_at) / Fold change /veh A4GNT (11735810_at) / RFU PRB3 (11715151_x_at) / Fold change /veh PRB3 (11715151_x_at) / RFU TUBB4B (11761932_at) / Fold change /veh TUBB4B (11761932_at) / RFU CAPN14 (11732068_a_at) / Fold change /veh CAPN14 (11732068_a_at) / RFU TMCC2 (11721928_a_at) / Fold change /veh TMCC2 (11721928_a_at) / RFU IRGQ (11745062_a_at) / Fold change /veh IRGQ (11745062_a_at) / RFU FAM174B (11720279_a_at) / Fold change /veh FAM174B (11720279_a_at) / RFU TMPRSS4 (11748680_a_at) / Fold change /veh TMPRSS4 (11748680_a_at) / RFU FAM212B (11763350_a_at) / Fold change /veh FAM212B (11763350_a_at) / RFU PLEKHG5 (11743358_a_at) / Fold change /veh PLEKHG5 (11743358_a_at) / RFU ZSCAN30 (11745921_a_at) / Fold change /veh ZSCAN30 (11745921_a_at) / RFU CMKLR1 (11741424_a_at) / Fold change /veh CMKLR1 (11741424_a_at) / RFU LOC101060620 /// MAPK8IP1 (11723275_at) / Fold change /veh LOC101060620 /// MAPK8IP1 (11723275_at) / RFU SPTSSB (11747773_x_at) / Fold change /veh SPTSSB (11747773_x_at) / RFU PRSS12 (11739890_at) / Fold change /veh PRSS12 (11739890_at) / RFU BIN1 (11741810_x_at) / Fold change /veh BIN1 (11741810_x_at) / RFU WNT11 (11732464_a_at) / Fold change /veh WNT11 (11732464_a_at) / RFU C10orf10 (11716521_a_at) / Fold change /veh C10orf10 (11716521_a_at) / RFU C5orf56 (11738089_at) / Fold change /veh C5orf56 (11738089_at) / RFU CYB561 (11721691_x_at) / Fold change /veh CYB561 (11721691_x_at) / RFU ANKRD19P (11752326_a_at) / Fold change /veh ANKRD19P (11752326_a_at) / RFU OR2T12 /// OR2T33 /// OR2T8 (11738714_s_at) / Fold change /veh OR2T12 /// OR2T33 /// OR2T8 (11738714_s_at) / RFU VCAN (11748164_a_at) / Fold change /veh VCAN (11748164_a_at) / RFU JSRP1 (11732532_at) / Fold change /veh JSRP1 (11732532_at) / RFU KRTAP10-11 (11738290_x_at) / Fold change /veh KRTAP10-11 (11738290_x_at) / RFU MYO3A (11730013_a_at) / Fold change /veh MYO3A (11730013_a_at) / RFU EBF3 (11725865_a_at) / Fold change /veh EBF3 (11725865_a_at) / RFU CAMK2N1 (11719241_x_at) / Fold change /veh CAMK2N1 (11719241_x_at) / RFU C5orf56 (11738088_a_at) / Fold change /veh C5orf56 (11738088_a_at) / RFU OLFML3 (11715873_a_at) / Fold change /veh OLFML3 (11715873_a_at) / RFU LOC100653217 /// NTM (11731650_a_at) / Fold change /veh LOC100653217 /// NTM (11731650_a_at) / RFU MAPK11 (11762145_a_at) / Fold change /veh MAPK11 (11762145_a_at) / RFU FIZ1 (11724087_x_at) / Fold change /veh FIZ1 (11724087_x_at) / RFU OASL (11726364_x_at) / Fold change /veh OASL (11726364_x_at) / RFU SOX15 (11748057_x_at) / Fold change /veh SOX15 (11748057_x_at) / RFU CD79A (11719716_a_at) / Fold change /veh CD79A (11719716_a_at) / RFU HIST1H1D (11736915_at) / Fold change /veh HIST1H1D (11736915_at) / RFU CASKIN2 (11723855_a_at) / Fold change /veh CASKIN2 (11723855_a_at) / RFU LOC730098 (11760151_x_at) / Fold change /veh LOC730098 (11760151_x_at) / RFU OR4N2 (11742367_at) / Fold change /veh OR4N2 (11742367_at) / RFU PRRT2 (11749266_a_at) / Fold change /veh PRRT2 (11749266_a_at) / RFU SNX32 (11753110_a_at) / Fold change /veh SNX32 (11753110_a_at) / RFU CDHR5 (11726645_a_at) / Fold change /veh CDHR5 (11726645_a_at) / RFU RCAN1 (11760418_a_at) / Fold change /veh RCAN1 (11760418_a_at) / RFU FAM167A (11723789_a_at) / Fold change /veh FAM167A (11723789_a_at) / RFU FAM26E (11764081_at) / Fold change /veh FAM26E (11764081_at) / RFU ISYNA1 (11749810_s_at) / Fold change /veh ISYNA1 (11749810_s_at) / RFU ACY1 (11761880_at) / Fold change /veh ACY1 (11761880_at) / RFU 11764098_at / Fold change /veh 11764098_at / RFU SAMD14 (11745864_x_at) / Fold change /veh SAMD14 (11745864_x_at) / RFU NPB (11741838_a_at) / Fold change /veh NPB (11741838_a_at) / RFU TMPRSS6 (11731388_a_at) / Fold change /veh TMPRSS6 (11731388_a_at) / RFU KRTAP10-2 (11738614_at) / Fold change /veh KRTAP10-2 (11738614_at) / RFU ARHGAP8 /// PRR5-ARHGAP8 (11727945_x_at) / Fold change /veh ARHGAP8 /// PRR5-ARHGAP8 (11727945_x_at) / RFU KRTAP5-7 /// NADSYN1 (11734609_at) / Fold change /veh KRTAP5-7 /// NADSYN1 (11734609_at) / RFU RASL12 (11751679_a_at) / Fold change /veh RASL12 (11751679_a_at) / RFU CDKN2B (11736163_a_at) / Fold change /veh CDKN2B (11736163_a_at) / RFU PRF1 (11729649_at) / Fold change /veh PRF1 (11729649_at) / RFU, ZNF638 /// ZNF638-IT1 / Fold change vs veh, ZNF638 /// ZNF638-IT1 / RFU, PANK3 / Fold change vs veh, PANK3 / RFU, SH3YL1 / Fold change vs veh, SH3YL1 / RFU, ZEB2 / Fold change vs veh, ZEB2 / RFU, NRIP1 / Fold change vs veh, NRIP1 / RFU, PTTG1IP / Fold change vs veh, PTTG1IP / RFU, CAPN2 / Fold change vs veh, CAPN2 / RFU, MED14 / Fold change vs veh, MED14 / RFU, SNORA58 / Fold change vs veh, SNORA58 / RFU, C1orf63 / Fold change vs veh, C1orf63 / RFU, LRRFIP1 / Fold change vs veh, LRRFIP1 / RFU, NDUFAF7 / Fold change vs veh, NDUFAF7 / RFU, SLC12A2 / Fold change vs veh, SLC12A2 / RFU, IBTK / Fold change vs veh, IBTK / RFU, ESF1 / Fold change vs veh, ESF1 / Fold change vs veh, TMEM50B / RFU, TAOK1 / Fold change vs veh, TAOK1 / RFU, ACBD3 / Fold change vs veh, ACBD3 / RFU, TMA16 / Fold change vs veh, TMA16 / RFU, RWDD3 / Fold change vs veh, RWDD3 / RFU, BCAT1 / Fold change vs veh, BCAT1 / RFU, EDEM3 / Fold change vs veh, EDEM3 / RFU, TMEM33 / Fold change vs veh, TMEM33 / RFU, WDR75 / Fold change vs veh, WDR75 / RFU, AHCTF1 / Fold change vs veh, AHCTF1 / RFU, TFRC / Fold change vs veh, TFRC / RFU, ZDHHC17 / Fold change vs veh, ZDHHC17 / RFU, NOM1 / Fold change vs veh, NOM1 / RFU, ARL8B / Fold change vs veh, ARL8B / RFU, ZBTB11 / Fold change vs veh, ZBTB11 / RFU, TAMM41 / Fold change vs veh, TAMM41 / RFU, KIAA1704 /// LOC100996395 / Fold change vs veh, KIAA1704 /// LOC100996395 / RFU, ING1 / Fold change vs veh, ING1 / RFU, TRMT61B / Fold change vs veh, TRMT61B / RFU, FUBP3 / Fold change vs veh, FUBP3 / RFU, TP53 / Fold change vs veh, TP53 / RFU, TNKS2 / Fold change vs veh, TNKS2 / RFU, ZFP14 / Fold change vs veh, ZFP14 / RFU, ACTR2 / Fold change vs veh, ACTR2 / RFU, PPP3R1 / Fold change vs veh, PPP3R1 / RFU, PIK3R1 / Fold change vs veh, PIK3R1 / RFU, HNRNPA1 / Fold change vs veh, HNRNPA1 / RFU, RNF170 / Fold change vs veh, RNF170 / RFU, ZNF28 / Fold change vs veh, ZNF28 / RFU, RNGTT / Fold change vs veh, RNGTT / RFU, OGT / Fold change vs veh, OGT / RFU, BRD1 / Fold change vs veh, BRD1 / RFU, MARS / Fold change vs veh, MARS / RFU, ZNF655 / Fold change vs veh, ZNF655 / RFU, FAHD1 / Fold change vs veh, FAHD1 / RFU, BDP1 / Fold change vs veh, BDP1 / RFU, LRRCC1 / Fold change vs veh, LRRCC1 / RFU, ARID1A / Fold change vs veh, ARID1A / RFU, ZNF146 / Fold change vs veh, ZNF146 / RFU, ZNF330 / Fold change vs veh, ZNF330 / RFU, GPN3 / Fold change vs veh, GPN3 / RFU, C9orf123 / Fold change vs veh, C9orf123 / RFU, N4BP2L2 / Fold change vs veh, N4BP2L2 / RFU, ARFIP1 / Fold change vs veh, ARFIP1 / RFU, FAM179B / Fold change vs veh, FAM179B / RFU, BCL10 / Fold change vs veh, BCL10 / RFU, UHRF1BP1L / Fold change vs veh, UHRF1BP1L / RFU, BET1 / Fold change vs veh, BET1 / RFU, CNOT2 / Fold change vs veh, CNOT2 / RFU, ZNF268 / Fold change vs veh, ZNF268 / Fold change vs veh, ZNF507 / RFU, DGCR2 / Fold change vs veh, DGCR2 / RFU, WDSUB1 / Fold change vs veh, WDSUB1 / Fold change vs veh, HSP90B1 /// MIR3652 / RFU, ADSS / Fold change vs veh, ADSS / RFU, GK / Fold change vs veh, GK / RFU, ZNF148 / Fold change vs veh, ZNF148 / RFU, TAF9 / Fold change vs veh, TAF9 / RFU, SLC1A5 / Fold change vs veh, SLC1A5 / RFU, SLMO2 / Fold change vs veh, SLMO2 / RFU, ABCC4 / Fold change vs veh, ABCC4 / RFU, LOC101060439 /// RAP1B / Fold change vs veh, LOC101060439 /// RAP1B / RFU, RFX7 / Fold change vs veh, RFX7 / RFU, GTPBP10 / Fold change vs veh, GTPBP10 / RFU, CNEP1R1 / Fold change vs veh, CNEP1R1 / RFU, BIVM-ERCC5 /// ERCC5 / Fold change vs veh, BIVM-ERCC5 /// ERCC5 / RFU, ILF3 / Fold change vs veh, ILF3 / RFU 11762660_at / Fold change /veh 11762660_at / RFU VCAN (11757783_s_at) / Fold change /veh VCAN (11757783_s_at) / RFU DDX43 (11728927_at) / Fold change /veh DDX43 (11728927_at) / RFU KRT8 (11758188_x_at) / Fold change /veh KRT8 (11758188_x_at) / RFU NKD1 (11759106_at) / Fold change /veh NKD1 (11759106_at) / RFU SRD5A1 (11742802_a_at) / Fold change /veh SRD5A1 (11742802_a_at) / RFU TPSAB1 /// TPSB2 (11721975_s_at) / Fold change /veh TPSAB1 /// TPSB2 (11721975_s_at) / RFU GSTM3 (11746129_a_at) / Fold change /veh GSTM3 (11746129_a_at) / RFU IL23R (11737362_x_at) / Fold change /veh IL23R (11737362_x_at) / RFU TMEM51 (11727254_a_at) / Fold change /veh TMEM51 (11727254_a_at) / RFU PIWIL2 (11732686_x_at) / Fold change /veh PIWIL2 (11732686_x_at) / RFU ORM1 (11744905_x_at) / Fold change /veh ORM1 (11744905_x_at) / RFU CCDC152 (11743942_at) / Fold change /veh CCDC152 (11743942_at) / RFU ECM1 (11717891_a_at) / Fold change /veh ECM1 (11717891_a_at) / RFU IL23R (11748794_a_at) / Fold change /veh IL23R (11748794_a_at) / RFU TNFAIP8L3 (11732012_x_at) / Fold change /veh TNFAIP8L3 (11732012_x_at) / RFU MBOAT4 (11741988_at) / Fold change /veh MBOAT4 (11741988_at) / RFU 11764193_at / Fold change /veh 11764193_at / RFU TMEM53 (11763286_at) / Fold change /veh TMEM53 (11763286_at) / RFU MAGEB2 (11727129_at) / Fold change /veh MAGEB2 (11727129_at) / RFU TMEM200A (11744735_a_at) / Fold change /veh TMEM200A (11744735_a_at) / RFU CCDC152 (11751479_a_at) / Fold change /veh CCDC152 (11751479_a_at) / RFU FAM211A (11726209_a_at) / Fold change /veh FAM211A (11726209_a_at) / RFU RGS16 (11746705_a_at) / Fold change /veh RGS16 (11746705_a_at) / RFU VCAN (11755009_s_at) / Fold change /veh VCAN (11755009_s_at) / RFU RHOB (11743442_s_at) / Fold change /veh RHOB (11743442_s_at) / RFU RGS16 (11720943_a_at) / Fold change /veh RGS16 (11720943_a_at) / RFU RGS16 (11720944_at) / Fold change /veh RGS16 (11720944_at) / RFU, VPS4B / Fold change vs veh, VPS4B / RFU, CREB1 / Fold change vs veh, CREB1 / RFU, DNAJC13 / Fold change vs veh, DNAJC13 / RFU, GNAQ / Fold change vs veh, GNAQ / RFU, CDK5R1 / Fold change vs veh, CDK5R1 / RFU, ZRANB3 / Fold change vs veh, ZRANB3 / RFU, CUL4A / Fold change vs veh, CUL4A / RFU, CCNY / Fold change vs veh, CCNY / RFU, UFL1 / Fold change vs veh, UFL1 / RFU, COG3 / Fold change vs veh, COG3 / RFU, DIAPH2 / Fold change vs veh, DIAPH2 / RFU, SKA2 / Fold change vs veh, SKA2 / RFU, AFF3 / Fold change vs veh, AFF3 / RFU, LMF1 / Fold change vs veh, LMF1 / RFU, IPO11 / Fold change vs veh, IPO11 / RFU, DFFB / Fold change vs veh, DFFB / RFU, FOXP1 / Fold change vs veh, FOXP1 / RFU, CARD8 / Fold change vs veh, CARD8 / RFU, STRN3 / Fold change vs veh, STRN3 / RFU, ADK / Fold change vs veh, ADK / RFU, RASSF2 / Fold change vs veh, RASSF2 / RFU, WIPF1 / Fold change vs veh, WIPF1 / RFU, LARP1B / Fold change vs veh, LARP1B / RFU, RASA1 / Fold change vs veh, RASA1 / RFU, RB1 / Fold change vs veh, RB1 / RFU, PPFIA1 / Fold change vs veh, PPFIA1 / RFU, MAT2A / Fold change vs veh, MAT2A / RFU, CCT5 / Fold change vs veh, CCT5 / RFU, WDR92 / Fold change vs veh, WDR92 / RFU, CUX1 / Fold change vs veh, CUX1 / RFU, TTC7A / Fold change vs veh, TTC7A / RFU, TMEM135 / Fold change vs veh, TMEM135 / RFU, DEPTOR / Fold change vs veh, DEPTOR / RFU, CPM / Fold change vs veh, CPM / RFU, DNAJB6 / Fold change vs veh, DNAJB6 / RFU, CACNA2D3 / Fold change vs veh, CACNA2D3 / RFU, DTX4 / Fold change vs veh, DTX4 / RFU, TFCP2 / Fold change vs veh, TFCP2 / RFU, GMCL1 /// GMCL1P1 / Fold change vs veh, GMCL1 /// GMCL1P1 / RFU, AEBP2 / Fold change vs veh, AEBP2 / RFU, SNHG1 /// SNORD22 /// SNORD25 /// SNORD26 /// SNORD27 /// SNORD28 /// SNORD29 /// SNORD31 / Fold change vs veh, SNHG1 /// SNORD22 /// SNORD25 /// SNORD26 /// SNORD27 /// SNORD28 /// SNORD29 /// SNORD31 / Fold change (Aza/veh), C12orf56 (ProbeSet 11735607_a_at) / Fold change (ACY-1035/veh), C12orf56 (ProbeSet 11735607_a_at) / Fold change (Aza/veh), FGFR1OP (ProbeSet 11751329_s_at) / Fold change (ACY-1035/veh), FGFR1OP (ProbeSet 11751329_s_at) / Fold change (Aza/veh), VPS36 (ProbeSet 11739960_a_at) / Fold change (ACY-1035/veh), VPS36 (ProbeSet 11739960_a_at) / RFU SYPL1 (11715823_x_at) / Fold change /veh SYPL1 (11715823_x_at) / RFU IGFBP7 (11715501_s_at) / Fold change /veh IGFBP7 (11715501_s_at) / RFU REEP3 (11722064_at) / Fold change /veh REEP3 (11722064_at) / RFU IGLL1 (11728026_x_at) / Fold change /veh IGLL1 (11728026_x_at): dose or concentration left out as unconfirmed",
  "details": "ProbeSet 11764057_s_at; LIST B",
  "data": [
    {"smiles": "Nc1ncn([C@@H]2O[C@H](CO)[C@@H](O)[C@H]2O)c(=O)n1", "note": "[azacitidine]", "values": [
      {"measurement": "Fold change vs veh, C1orf63", "result": 1.09}
    ]}
  ]
}
